Structures can show the parent of a compound that is named as a salt.
Experiments:
[1] = system: IL-23 (p19/p40); test: IL23-p19 ELISA, dendritic cells (DC differentiated from human PBMC, IFNγ primed), LPS stimulated; type: cell-based; conditions: Dendritic cell, human PBMC-derived dendritic cells, 1 h compound pre-incubation, LPS 1 μg/ml 18 hours, 10 pt
In short: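 PBMC-derived DCs (GM-CSF 100 ng/ml + IL-4 20 ng/ml, 7 days) primed 24 h with IFNγ 50 ng/ml, 50K cells/well; compound pre-incubated 1 h at 37° C, then LPS, 18 h. Supernatant IL-23 by p19-capture/p40-detection chemiluminescent ELISA; cytotoxicity by Cell Titer Glo.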

[2] = system: IL-23p19; test: LPS Induced IL23p19 in THP-1 Cells (with IFNγ Primed) Assay; type: cell-based, human; conditions: Homo sapiens, THP-1, THP-1 cells, IFNγ (50 ng/mL) primed, 1 hour compound pre-incubation, LPS 1 ug/mL 18 hours, 10 pt; read-out: IL23-p19 ELISA, THP1-IFNy, LPS, 10 pt EC50
In short: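 THP-1 cells (50K/well) primed ~18 h with IFNγ (50 ng/mL) in RPMI/10% FBS, then incubated with compound in duplicate for 18 h at 37° C. Supernatant IL-23p19 measured by chemiluminescent sandwich ELISA, giving EC50 by curve fitting. Toxicity assessed in parallel on the remaining cells by Cell Titer Glo.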

Row | SMILES | EC50 [1] | EC50 [2]
1 | COCCOCCn1cc(NC(=O)c2cccc(Oc3ccnc(N)c3)n2)c(-c2ccccn2)n1 [Compound I-156, 6-((2-aminopyridin-4-yl)oxy)-N-(1-(2-(2-methoxyethoxy)ethyl)-3-(pyridin-2-yl)-1H-pyrazol-4-yl)picolinamide formate] | 2.73 µM | 21.4 µM
2 | Cc1ccc(-c2cccc(C(=O)Nc3cn(C)nc3-c3ccccn3)n2)cn1 [Compound I-16, 6′-methyl-N-(1-methyl-3-(pyridin-2-yl)-1H-pyrazol-4-yl)-[2,3′-bipyridine]-6-carboxamide] | 1.2 µM | 6.35 µM
3 | COCCOCCn1cc(NC(=O)c2cccc(-c3ccoc3)n2)c(-c2ccccn2)n1 [Compound I-151, 6-(furan-3-yl)-N-(1-(2-(2-methoxyethoxy)ethyl)-3-(pyridin-2-yl)-1H-pyrazol-4-yl)picolinamide 2,2,2-trifluoroacetate] | 4.12 µM | 7.88 µM
4 | CC(C)n1cc(NC(=O)c2cccc(-c3cn[nH]c3)n2)c(-c2ccccn2)n1 [Compound I-80, N-(1-isopropyl-3-(pyridin-2-yl)-1H-pyrazol-4-yl)-6-(1H-pyrazol-4-yl)picolinamide] | 8.79 µM | 2.39 µM
5 | COC1CC(n2cc(NC(=O)c3cccc(-c4cncc(C)c4)n3)c(-c3ccccn3)n2)C1 (centres unmarked) [Compound I-162, N-(1-(3-methoxycyclobutyl)-3-(pyridin-2-yl)-1H-pyrazol-4-yl)-5′-methyl-[2,3′-bipyridine]-6-carboxamide formate] | 0.167 µM | 0.499 µM
6 | COc1ccc(-c2nn(C)cc2NC(=O)c2cccc(-c3cncc(NC(C)C)c3)n2)nc1 [Compound I-71, 5′-(isopropylamino)-N-(3-(5-methoxypyridin-2-yl)-1-methyl-1H-pyrazol-4-yl)-[2,3′-bipyridine]-6-carboxamide] | 0.415 µM | 0.299 µM
7 | O=C(Nc1cn(CCO)nc1-c1ccccn1)c1cccc(-c2ccncc2)n1 [Compound I-108, N-(1-(2-hydroxyethyl)-3-(pyridin-2-yl)-1H-pyrazol-4-yl)-[2,4′-bipyridine]-6-carboxamide formate] | 4.92 µM | 5.96 µM
8 | Cc1cncc(-c2cccc(C(=O)Nc3cn(C)nc3N3CCCCC3)n2)c1 [Compound I-76, 5′-methyl-N-(1-methyl-3-(piperidin-1-yl)-1H-pyrazol-4-yl)-[2,3′-bipyridine]-6-carboxamide] | 4.32 µM | 1.93 µM
9 | Cn1cc(-c2cccc(C(=O)Nc3cn(C)nc3-c3ccccn3)n2)cn1 [Compound I-8, 6-(1-methyl-1H-pyrazol-4-yl)-N-(1-methyl-3-(pyridin-2-yl)-1H-pyrazol-4-yl)picolinamide] | 2.42 µM | 1.7 µM
10 | Cn1cc(NC(=O)c2cccc(-c3cncc(NCC4CC4)c3)n2)c(-c2ccccn2)n1 [Compound I-32, 5′-((cyclopropylmethyl)amino)-N-(1-methyl-3-(pyridin-2-yl)-1H-pyrazol-4-yl)-[2,3′-bipyridine]-6-carboxamide] | 7.19 µM | 2.52 µM
11 | CNc1cncc(-c2cccc(C(=O)Nc3cn(C)nc3-c3ccccn3)n2)c1 [Compound I-26, N-(1-methyl-3-(pyridin-2-yl)-1H-pyrazol-4-yl)-5′-(methylamino)-[2,3′-bipyridine]-6-carboxamide] | 0.204 µM | 2.87 µM
12 | Cn1cc(NC(=O)c2cccc(-c3cncc(NC(C)(C)C)c3)n2)c(-c2ccccn2)n1 [Compound I-29, 5′-(tert-butylamino)-N-(1-methyl-3-(pyridin-2-yl)-1H-pyrazol-4-yl)-[2,3′-bipyridine]-6-carboxamide] | 0.91 µM | 16.4 µM
13 | Cc1cncc(-c2cccc(C(=O)Nc3cn(C)nc3-c3ccccn3)n2)c1 [Compound I-12, 5′-methyl-N-(1-methyl-3-(pyridin-2-yl)-1H-pyrazol-4-yl)-[2,3′-bipyridine]-6-carboxamide] | 0.106 µM | 0.25 µM

Further lines, results first:

Row | EC50 [1] | EC50 [2] | SMILES
14 | 3.78 µM | 0.873 µM | Cn1cc(NC(=O)c2cncc(-c3cn[nH]c3)n2)c(-c2ccccn2)n1 [Compound I-122, N-(1-methyl-3-(pyridin-2-yl)-1H-pyrazol-4-yl)-6-(1H-pyrazol-4-yl)pyrazine-2-carboxamide]
15 | 2.41 µM | 0.29 µM | COc1ccc(-c2nn(C)cc2NC(=O)c2cccc(-c3cn[nH]c3)n2)nc1 [Compound I-68, N-(3-(5-methoxypyridin-2-yl)-1-methyl-1H-pyrazol-4-yl)-6-(1H-pyrazol-4-yl)picolinamide]
16 | 1.06 µM | 0.371 µM | COC1CC(n2cc(NC(=O)c3cccc(-c4cn[nH]c4)n3)c(-c3ccccn3)n2)C1 (centres unmarked) [Compound I-163, N-(1-(3-methoxycyclobutyl)-3-(pyridin-2-yl)-1H-pyrazol-4-yl)-6-(1H-pyrazol-4-yl)picolinamide formate]
17 | 1.51 µM | 1.2 µM | COc1ccc(-c2nn(C)cc2NC(=O)c2cccc(-c3cncc(C)c3)n2)nc1 [Compound I-69, N-(3-(5-methoxypyridin-2-yl)-1-methyl-1H-pyrazol-4-yl)-5′-methyl-[2,3′-bipyridine]-6-carboxamide]
18 | 1.46 µM | 1.32 µM | Cn1cc(NC(=O)c2cccc(-c3ccc(N)nc3)n2)c(-c2ccccn2)n1 [Compound I-43, 6′-amino-N-(1-methyl-3-(pyridin-2-yl)-1H-pyrazol-4-yl)-[2,3′-bipyridine]-6-carboxamide]
19 | 0.142 µM | 0.212 µM | O=C(Nc1cn(C2COC2)nc1-c1ccccn1)c1cccc(-c2cn[nH]c2)n1 [Compound I-116, N-(1-(oxetan-3-yl)-3-(pyridin-2-yl)-1H-pyrazol-4-yl)-6-(1H-pyrazol-4-yl)picolinamide]
20 | 4.17 µM | 1.49 µM | Cc1cncc(-c2cccc(C(=O)Nc3cn(C)nc3-c3ccc(OC4COC4)cn3)n2)c1 [Compound I-181, 5′-methyl-N-(1-methyl-3-(5-(oxetan-3-yloxy)pyridin-2-yl)-1H-pyrazol-4-yl)-[2,3′-bipyridine]-6-carboxamide]
21 | 16.1 µM | 71.9 µM | Cn1cc(NC(=O)c2cccc(-c3cncc(NS(C)(=O)=O)c3)n2)c(-c2ccccn2)n1 [Compound I-34, N-(1-methyl-3-(pyridin-2-yl)-1H-pyrazol-4-yl)-5′-(methylsulfonamido)-[2,3′-bipyridine]-6-carboxamide]
22 | 0.1 µM | 0.156 µM | O=C(Nc1cn(C2COC2)nc1-c1ccccn1)c1cccc(-c2cc[nH]n2)n1 [Compound I-117, N-(1-(oxetan-3-yl)-3-(pyridin-2-yl)-1H-pyrazol-4-yl)-6-(1H-pyrazol-3-yl)picolinamide]
23 | 2.16 µM | 33.2 µM | Cc1cncc(-c2cccc(C(=O)Nc3cn(C)nc3N3CCOCC3)n2)c1 [Compound I-77, 5′-methyl-N-(1-methyl-3-morpholino-1H-pyrazol-4-yl)-[2,3′-bipyridine]-6-carboxamide]
24 | 0.832 µM | 0.643 µM | Cc1n[nH]cc1-c1cccc(C(=O)Nc2cn(C)nc2-c2ccccn2)n1 [Compound I-78, 6-(3-methyl-1H-pyrazol-4-yl)-N-(1-methyl-3-(pyridin-2-yl)-1H-pyrazol-4-yl)picolinamide]
25 | 82.7 µM | 2.01 µM | O=C(Nc1cn(CCN2CCOCC2)nc1-c1ccccn1)c1cccc(-c2cn[nH]c2)n1 [Compound I-83, N-(1-(2-morpholinoethyl)-3-(pyridin-2-yl)-1H-pyrazol-4-yl)-6-(1H-pyrazol-4-yl)picolinamide]

From patent publication US10947216B2, “Amide compounds and method for making and using” (Rigel Pharmaceuticals, Inc., priority 2016, dated 2021)
